The source of these data is patent US4329339A, “Anthracyclinones and derivatives thereof” (Hoffmann-La Roche Inc., priority 1980, dated 1982).

Series [1] concerns Escherichia coli K-12 IAM 1264. Description: MIC, agar streak method, Escherichia coli K-12 IAM 1264. Format: cell-based. To be noted: IAM1264, Heart infusion agar. From the text:
(§1) | (1) Heart infusion agar

Series [2] deals with Saccharomyces cerevisiae ATCC 9763. Description: MIC, agar streak method, Saccharomyces cerevisiae ATCC 9763. Format: cell-based. To be noted: ATCC9763, Sabouraud dextrose agar. From the text:
(§2) | (2) Sabouraud dextrose agar

The nature of series [3]: Acute intraperitoneal toxicity in mice. To be noted: mouse, in vivo, ip, judged 72 hours after a single intraperitoneal injection.
In series [4] the test system is Candida albicans ATCC 10231. Description: MIC, agar streak method, Candida albicans ATCC 10231. Format: cell-based. To be noted: ATCC10231, Sabouraud dextrose agar.
From the text: as §2

The test system of series [5] is Micrococcus flavus ATCC 10240. Description: MIC, agar streak method, Micrococcus flavus ATCC 10240. Format: cell-based. To be noted: ATCC10240, Heart infusion agar.
From the text: as §1

Series [6] has as its system Staphylococcus aureus 209P IAM 1011. As to the kind of experiment: MIC, agar streak method, Staphylococcus aureus 209P IAM 1011. Format: cell-based. To be noted: Heart infusion agar.
From the text: as §1

The test system of series [7] is Pseudomonas aeruginosa IFO 12689. As to the kind of experiment: MIC, agar streak method, Pseudomonas aeruginosa IFO 12689. Format: cell-based. To be noted: IFO12689, Heart infusion agar.
From the text: as §1

Series [8] has as its system Candida tropicalis ATCC 13803. Description: MIC, agar streak method, Candida tropicalis ATCC 13803. Format: cell-based. To be noted: ATCC13803, Sabouraud dextrose agar.
From the text: as §2

Series [9] concerns Proteus vulgaris IAM 1025. As to the kind of experiment: MIC, agar streak method, Proteus vulgaris IAM 1025. Format: cell-based. To be noted: IAM1025, Heart infusion agar.
From the text: as §1

A further series relates to Sarcina lutea IAM 1009. Description: MIC, agar streak method, Sarcina lutea IAM 1009. Format: cell-based. To be noted: Micrococcus luteus, IAM1009, Heart infusion agar.
From the text: as §1

The next series deals with P388 leukaemia. As to the kind of experiment: Antitumour effect against P388 leukaemia in mice. To be noted: 1×10^6 P388 cells i.p., CDF1 mice. Format: in vivo. The method, then: The anthracycline glycosides provided by the present invention were tested against P388 leukaemia in mice. When CDF1 mice are inoculated with 1×10^6 cells of P388 intraperitoneally and each of the antibiotics is administered intraperitoneally on days 1, 5 and 9, the survival time of the treated mice is prolonged as shown in Table 7 hereinafter.

The test system of series [10] is Escherichia coli NIHJ IFO 12734. Description: MIC, agar streak method, Escherichia coli NIHJ IFO 12734. To be noted: IFO12734, Heart infusion agar. Format: cell-based.
From the text: as §1

Series [11] relates to Serratia marcescens IFO 12648. Description: MIC, agar streak method, Serratia marcescens IFO 12648. Format: cell-based. To be noted: IFO12648, Heart infusion agar.
From the text: as §1

For series [12], the system named is Staphylococcus aureus 209P Stf. Description: MIC, agar streak method, Staphylococcus aureus 209P Stf. Format: cell-based.
The subject of series [13] is Mycobacterium smegmatis IFO 13167. As to the kind of experiment: MIC, agar streak method, Mycobacterium smegmatis IFO 13167. To be noted: Mycolicibacterium smegmatis, IFO13167, Heart infusion agar. Format: cell-based.
From the text: as §1

Series [14] has as its system Bacillus subtilis IAM 1027. As to the kind of experiment: MIC, agar streak method, Bacillus subtilis IAM 1027. Format: cell-based. To be noted: IAM1027, Heart infusion agar.
From the text: as §1

Series [15] deals with Klebsiella pneumoniae IFO 3512. As to the kind of experiment: MIC, agar streak method, Klebsiella pneumoniae IFO 3512. Format: cell-based. To be noted: IFO3512, Heart infusion agar.
From the text: as §1

Series [16] relates to Staphylococcus epidermidis IFO 12993. As to the kind of experiment: MIC, agar streak method, Staphylococcus epidermidis IFO 12993. Format: cell-based. To be noted: IFO12993, Heart infusion agar.
From the text: as §1

In the next series the test system is Bacillus cereus Ro 179B. Description: MIC, agar streak method, Bacillus cereus Ro 179B. Format: cell-based. To be noted: RO179B, Heart infusion agar.
From the text: as §1

[17] abbreviates: 1.88 mg/kg/day i.p. on days 1, 5 and 9.
[18] abbreviates: 3.75 mg/kg/day i.p. on days 1, 5 and 9.
Setting [19] is: 7.5 mg/kg/day i.p. on days 1, 5 and 9.
[20] abbreviates: 15 mg/kg/day i.p. on days 1, 5 and 9.
Where [21] appears, read: Staphylococcus aureus 209P Stf, read-out: MIC.

Converted amounts (≈) assume the structure as drawn. Where two headings read alike, the source gives them in different places. Bounds are passed on as bounds.

In the case of `COC(=O)C1c2cc3c(c(O)c2C(OC2CC(N(C)C)C(OC4CC(O)C(OC5CCC(=O)C(C)O5)C(C)O4)C(C)O2)CC1(O)CC(C)=O)C(=O)c1c(O)cccc1C3=O` (stereo not shown) [Sulfurmycin A], the MIC in [1] was more than 100 µg/mL; in [2] it was more than 100 µg/mL; in series [4], more than 100 µg/mL; in series [5], 0.2 µg/mL (≈ 0.238 µM); in series [6], 0.78 µg/mL (≈ 0.929 µM); in series [7], more than 100 µg/mL. In addition, the MIC was more than 100 µg/mL in series [8]; more than 100 µg/mL in [9]; 0.1 µg/mL (≈ 0.119 µM) in the series on Sarcina lutea IAM 1009; more than 100 µg/mL in series [10]; more than 100 µg/mL in series [11]; 0.2 µg/mL (≈ 0.238 µM) in series [12] (Staphylococcus aureus, 209P). In addition, the minimal inhibitory concentration (MIC) in [13] was 25 µg/mL (≈ 29.8 µM); in [14] it was 0.78 µg/mL (≈ 0.929 µM); in series [15] it was more than 100 µg/mL; in [16] it was 3.12 µg/mL (≈ 3.71 µM); with Bacillus cereus Ro 179B it was 0.2 µg/mL (≈ 0.238 µM). Besides, the LD50 at 72 h in series [3] is approximately 100 mg/kg. In addition, the “Mean survival (T/C, %)” value in the series with P388 leukaemia (setting [17]) stood at 124%; with P388 leukaemia (setting [18]) it was 134%; in the series on P388 leukaemia (setting [19]) it was 144%; with P388 leukaemia (setting [20]), 165%.
For the compound `COC(=O)C1c2cc3c(c(O)c2C(OC2CC(N(C)C)C(OC4CC5OC6CC(=O)C(C)OC6OC5C(C)O4)C(C)O2)CC1(C)O)C(=O)c1c(O)cccc1C3=O` (stereo not shown) [Auramycin B], the minimal inhibitory concentration (MIC) is more than 100 µg/mL in series [1]; more than 100 µg/mL in series [2]; more than 100 µg/mL in series [4]; 0.05 µg/mL (≈ 0.0628 µM) in series [5]; 0.39 µg/mL (≈ 0.49 µM) in series [6]; more than 100 µg/mL in series [7]. The MIC in series [8] is more than 100 µg/mL; in series [9], more than 100 µg/mL; against Sarcina lutea IAM 1009 it was 0.05 µg/mL (≈ 0.0628 µM); in [10], more than 100 µg/mL; in series [11] it was more than 100 µg/mL; in series [12] (setting [21]), 0.39 µg/mL (≈ 0.49 µM). Also, the MIC in [13] is 3.12 µg/mL (≈ 3.92 µM); in series [14], 0.78 µg/mL (≈ 0.98 µM); in series [15], more than 100 µg/mL; in series [16], 1.56 µg/mL (≈ 1.96 µM); in the series with Bacillus cereus Ro 179B it was 0.2 µg/mL (≈ 0.251 µM). This compound returned a 50% lethal dose (LD50) at 72 h in [3] of approximately 100 mg/kg. Also, the “Mean survival (T/C, %)” value in the series with P388 leukaemia (setting [17]) is given as 113%; in the series on P388 leukaemia (setting [18]), 124%; with P388 leukaemia (setting [19]), 149%; with P388 leukaemia (setting [20]) it was 196%.
As for `COC(=O)C1c2cc3c(c(O)c2C(OC2CC(N(C)C)C(OC4CC5OC6CC(=O)C(C)OC6OC5C(C)O4)C(C)O2)CC1(O)CC(C)=O)C(=O)c1c(O)cccc1C3=O` (stereo not shown) [Sulfurmycin B], the MIC in series [1] was more than 100 µg/mL; in [2], more than 100 µg/mL; in series [4] it was more than 100 µg/mL; in series [5] it was 0.1 µg/mL (≈ 0.119 µM); in series [6] it was 0.78 µg/mL (≈ 0.931 µM); in series [7], more than 100 µg/mL. Further, the MIC in series [8] is more than 100 µg/mL; in series [9], more than 100 µg/mL; in the series with Sarcina lutea IAM 1009 it was 0.1 µg/mL (≈ 0.119 µM); in [10] it was more than 100 µg/mL; in series [11], more than 100 µg/mL; in series [12] (Staphylococcus aureus, 209P) it was 0.39 µg/mL (≈ 0.465 µM). For the same compound, the MIC is 6.25 µg/mL (≈ 7.46 µM) in [13]; 0.78 µg/mL (≈ 0.931 µM) in [14]; more than 100 µg/mL in [15]; 1.56 µg/mL (≈ 1.86 µM) in series [16]; 0.39 µg/mL (≈ 0.465 µM) in the series with Bacillus cereus Ro 179B. Also, the 50% lethal dose (LD50) at 72 h in series [3] lay in the range of 25 to 50 mg/kg. Also, the “Mean survival (T/C, %)” value in the series with P388 leukaemia (setting [17]) is 124%; with P388 leukaemia (setting [18]), 124%; with P388 leukaemia (setting [19]), 155%; in the series with P388 leukaemia (setting [20]), 165%.
As for `COC(=O)C1c2cc3c(c(O)c2C(OC2CC(N(C)C)C(OC4CC(O)C(OC5CCC(=O)C(C)O5)C(C)O4)C(C)O2)CC1(C)O)C(=O)c1c(O)cccc1C3=O` (stereo not shown) [Auramycin A], the minimal inhibitory concentration (MIC) is more than 100 µg/mL in [1]; more than 100 µg/mL in [2]; more than 100 µg/mL in series [4]; 0.1 µg/mL (≈ 0.125 µM) in series [5]; 1.56 µg/mL (≈ 1.96 µM) in series [6]; more than 100 µg/mL in [7]. Also, the minimal inhibitory concentration (MIC) in [8] was more than 100 µg/mL; in [9] it was more than 100 µg/mL; in the series with Sarcina lutea IAM 1009 it was 0.1 µg/mL (≈ 0.125 µM); in series [10], more than 100 µg/mL; in series [11], more than 100 µg/mL; in [12] (setting [21]) it was 0.78 µg/mL (≈ 0.978 µM). Moreover, the MIC in series [13] was 6.25 µg/mL (≈ 7.83 µM); in series [14], 3.12 µg/mL (≈ 3.91 µM); in series [15], more than 100 µg/mL; in series [16], 3.12 µg/mL (≈ 3.91 µM); against Bacillus cereus Ro 179B it was 0.39 µg/mL (≈ 0.489 µM). This compound also had a median lethal dose (LD50) at 72 h in series [3] of approximately 100 mg/kg. Moreover, the “Mean survival (T/C, %)” value with P388 leukaemia (setting [17]) is recorded as 139%; in the series on P388 leukaemia (setting [18]), 129%; in the series with P388 leukaemia (setting [19]) it was 134%; in the series with P388 leukaemia (setting [20]), 170%.

For orientation: MIC means the lowest concentration found to suppress growth. One may read the LD50 as the dose at which mortality reaches 50%.
